Columns and labels:
[1] = Cellular toxicity assay in human PBM cells; type: cell-based; details: read-out: Cytotoxicity (IC50, μM) PBM
Method: (§1) The toxicity of the compounds was assessed in human PBM, CEM (human lymphoblastoid), and Huh-7 cells, as described previously (see Schinazi R. F., Sommadossi J.-P., Saalmann V., Cannon D. L., Xie M.-Y., Hart G. C., Smith G. A. & Hahn E. F. Antimicrob. Agents Chemother. 1990, 34, 1061-67). Cycloheximide was included as positive cytotoxic control, and untreated cells exposed to solvent were included as negative controls. The cytotoxicity IC50 was obtained from the concentration-response curve using the median effective method described previously (see Chou T.-C. & Talalay P. Adv. Enzyme Regul. 1984, 22, 27-55; Belen'kii M. S. & Schinazi R. F. Antiviral Res. 1994, 25, 1-11).

[2] = test system: miR-122; test: Expression of RORα-regulated microRNA in Huh-7 cells (qRT-PCR); type: cell-based, human; details: 1 μM, 24 hours
Method: Secreted microRNA levels in the medium of Huh-7 cells were analyzed by qRT-PCR and were normalized to spiked C. elegans miR-39. miR-18 and miR-93 served as controls for secreted microRNA and were not affected following Compound 1 addition.
RNA extraction and quantitative Real-Time PCR analysis. Total RNA, including small RNAs, were isolated from 200 μL of plasma or culture media samples using the miRNeasy Mini kit (Qiagen, Valencia, CA, USA) with 2 minor modifications. First, 200 μl of plasma or culture media were lysed with 1 ml of Qiazol solution. Second, a 50 pmol/l of synthesized single strand Caenorhabditis elegans miRNA (cel-miR-39) was added as the spike-in control to monitor extraction efficiency. The remainder of the RNA extraction was performed according to the manufacturer's instructions. miRNAs were eluted with 30 μl of RNase-free water. […] The fold expression and statistical significance were calculated using the 2-ΔΔ Ct method. […]

[3] = Cellular toxicity assay in Huh-7 cells; type: cell-based; details: human, read-out: Cytotoxicity (IC50, μM) Huh-7
Method: as §1

[4] = Cellular toxicity assay in CEM cells; type: cell-based; details: human, CEM (human lymphoblastoid) cells, read-out: Cytotoxicity (IC50, μM) CEM
Method: as §1

[5] = test system: C57BL/6 mice fed with HFD; test: Multi-parameter metabolic assessment (metabolic cages) in HFD-fed C57BL/6 mice; type: in vivo; details: 15 mg/kg 3 times a week, after 2 weeks, 24 hr period, vs saline
Method: Metabolic and activity profiles of the mice were measured, by using the Promethion High-Definition Behavioral Phenotyping System (Sable Instruments, Inc., Las Vegas, NV, USA), which is a multi-parameter assessment incorporating sub-systems for open-circuit indirect calorimetry, feeding, water intake, activity, running wheel and body mass measurements in a conventional live-in home cage that minimizes stress. Data acquisition and instrument control were performed using the MetaScreen software version 2.2.18.0, and the obtained raw data were processed using ExpeData version 1.8.4 using an analysis script detailing all aspects of data transformation. […] Respiratory gases were measured by using the GA-3 gas analyzer (Sable Systems Inc., Las Vegas, NV, USA) using a pull-mode, negative-pressure system. Air flow was measured and controlled by the FR-8 (Sable Systems Inc., Las Vegas, NV, USA), with a set flow rate of 2000 mL/min. Water vapor was continuously measured and its dilution effect on 02 and CO2 were mathematically compensated. Effective mass was calculated by ANCOVA analysis. Respiratory quotient (RQ) was calculated as the ratio of VCO2/VO2. Total energy expenditure (TEE) was calculated as VO2×(3.815+1.232×RQ), normalized to effective body mass, and expressed as kcal/h/kgeff.Mass. […]

Structure (SMILES): O=C1Nc2cc(C(=O)N3CCC(Cc4ccccc4)CC3)ccc2Nc2ccccc21 [Compound 1]
- IC50 [1]: 92.4 µM
- secreted miR-18 and miR-93 levels in medium (control microRNAs) [2]: not affected
- secretion of miR-122 (relative microRNA levels in Huh7 medium) ([2]; vs DMSO): specifically increases
- IC50 [3]: 10.4 µM
- IC50 [4]: 11 µM
- fat oxidation [5]: increased
- total energy expenditure (TEE) [5]: increased

Reference: patent US12318393B2, “Modulators of orphan nuclear receptors for NASH and other metabolic disorders” (Emory University, priority 2018, dated 2025)
